The subject of the assay is MCF7 complex spheroid growth, % test/control. The experiment in a line: Anticancer human tumor MCF7 cell line growth inhibition [Asc].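 As to all read-outs here: spheroids exposed to compounds for 7 days.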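 As to viability, T/C: 100% = DMSO vehicle control wells.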 The conditions noted are these: for viability, T/C: stronger effect = lower value. How it is done: Multicellular complex tumor spheroid response to apoptosis pathway targeting inhibitors Alrizomadlin, Pelcitoclax, and Dasminapant in combination with a variety of drugs and investigational agents in selected tumor cell lines
The MDM2 inhibitor alrizomadlin, the Bcl-2/Bcl-xL inhibitor pelcitoclax, and the IAPs inhibitor dasminapant were evaluated both individually and in combination with standard of care and investigational anticancer small molecules within a complex spheroid model of solid tumors. . Complex spheroids include a stromal component modeled by human endothelial cells (HUVEC) and fibroblasts modeled by human mesenchymal stem cells (MSCs). The concentration ranges selected for each drug and investigational agent were based upon clinically achievable concentrations if the clinical Cmax of the agent was known.
Compounds. The drugs and investigational agents: alrizomadlin (APG-115; NSC831270), pelcitoclax (APG-1252; NSC835773), dasminapant (APG-1387;NSC834197), TAK-243 (NSC785004), copanlisib (NSC809693), olaparib (NSC753686), talazoparib (NSC767125), cobimetinib (NSC 768068), eltanexor (KPT-8602, NSC 794443), abemaciclib (NSC 768073), sotorasib (NSC818433), adagrasib (NSC 831453), MRTX-1133 (NSC 836407), Iadademestat (ORY1001, NSC 806812), and RMC-4630 (NSC839698), were obtained from the NCI Developmental Therapeutics Program Chemical Repository. The FDA-approved anticancer drug set is available from the Developmental Therapeutics Program at https://dtp.cancer.gov/organization/dscb/obtaining/available plates.htm. […] The stock solutions were prepared in dimethyl sulfoxide (DMSO, Sigma-Aldrich, St. Louis, MO, cat. D2650) at 800-fold the tested concentration and stored at -70 degrees C prior to their use. All drugs and investigational agents were tested over a range starting from a high concentration at or near the clinical Cmax and decreasing in half-log increments. If the clinical Cmax for an agent had not been determined, the highest concentration tested was 10 microM.
The patient-derived cancer (PDC) cell lines include five colon adenocarcinomas: 186277-243-T-J2-PDC, 616215-338-R-J1-PDC, 439559-082-T-J2-PDC, 463943-066-T-J2-PDC, and 519858-162-T-J1-PDC; three pancreatic carcinomas: 323965-272-R-J2-PDC, 521955-158-R6-J3-PDC, and 521955-158-R2-J5-PDC; two uterine sarcomas: 327498-152-R-J2-PDC and 993429-296-R-J1-PDC; two rhabdomyosarcomas: 755483-174-R-J1-PDC and 772245-204-R-J1-PDC; two soft tissue sarcomas: 126254-015-R-J1-PDC and 494315-158-R-J1-PDC; two malignant fibrous histiocytomas: 317291-083-R-J1-PDC and 596521-263-R-J1-PDC; two breast carcinomas: 171881-019-R-J1-PDC and 885512-296-R-J2-PDC; and one ovarian carcinoma: 6556581-035-R-J-PDC were obtained from the NCI PDMR, (https://pdmr.cancer.gov). The established cell lines HSSY-2 synovial sarcoma (RRID:CVCL 8719), SYO-1 synovial sarcoma (RRID:CVCL_7146), MPNST malignant peripheral neural sheath tumor were obtained from the Sloan Kettering Institute. The following established cell lines were purchased from the American Type Culture Collection (ATCC, Manassas, VA), Sor the received from the NCI repository:, PANC-1 pancreatic carcinoma (CRL-1469, RRID:CVCL_0480), OVCAR-5 ovarian carcinoma (RRID:CVCL_1628), OVCAR-8 ovarian carcinoma (RRID:CVCL_1629), , MCF-7 breast carcinoma (CRL-12584, RRID:CVCL_0031), MDA-MB-231 breast carcinoma (CRL-12532, RRID:CVCL_0062), NCI-H1876 small cell lung carcinoma (CRL-5902, RRID:CVCL_1503), NCI-H510A small cell lung carcinoma (HTB-184, RRID:CVCL_1565), NCI-H1417 (CRL-5869, RRID:CVCL_1469), and NCI-H196 small cell lung carcinoma (CRL-5823, RRID:CVCL_1509). Dr. Peter Houghton (Greehey Children's Cancer Research Institute, University of Texas Health Science Center, San Antonio, TX) provided Rh-18 rhabdomyosarcoma (RRID:CVCL_1659). Pooled donor human umbilical vein endothelial cells (HUVEC, Lonza, cat. CC-2519) and human mesenchymal stem cells (hMSC, Lonza, cat. PT-2501) were purchased from Lonza (Walkersville, MD).
Cell Culture. […]

One may read the IC50 as the concentration that gives 50% inhibition. A word on the viability, T/C: it is the result in the treated group divided by that in the control group, in per cent.

Several values for one entry are separate records, joined by “and”; a condition that tells them apart may be missing. Identical values can stand only once.

On to `CCN1CCN(Cc2ccc(Nc3ncc(F)c(-c4cc(F)c5nc(C)n(C(C)C)c5c4)n3)nc2)CC1` + CCN1C(C(=O)NC23CCC(C(=O)O)(CC2)CC3)C(c2cccc(Cl)c2F)C2(C(=O)Nc3cc(Cl)ccc32)C12CCCCC2, for which the half-maximal inhibitory concentration (IC50) is, setting by setting: (curve of first compound, second compound 0.00949 µM) greater than 1000 nM; (curve of first compound, second compound 0.03 µM) greater than 1000 nM; (curve of first compound, second compound 0.0949 µM) less than 3.16 nM; (curve of first compound, second compound 0.3 µM) less than 3.16 nM; (curve of first compound, second compound 0.949 µM) less than 3.16 nM; (curve of first compound, second compound 3 µM) less than 3.16 nM. Further, the viability, T/C (second compound 0.00949 µM, first compound 0.00316 µM) was 99%; the viability, T/C (second compound 0.00949 µM, first compound 0.01 µM) is 112%; the viability, T/C (second compound 0.00949 µM, first compound 0.0316 µM) was 90.4%; the viability, T/C (second compound 0.00949 µM, first compound 0.1 µM) was 92.4%; the viability, T/C (second compound 0.00949 µM, first compound 0.316 µM) was 85.6%; the viability, T/C (second compound 0.00949 µM, first compound 1 µM) was 71.7%. For the same molecule, the viability, T/C reads like this: (second compound 0.03 µM, first compound 0.00316 µM) 120%; (second compound 0.03 µM, first compound 0.01 µM) 99.9%; (second compound 0.03 µM, first compound 0.0316 µM) 88.2%; (second compound 0.03 µM, first compound 0.1 µM) 63.7%; (second compound 0.03 µM, first compound 0.316 µM) 59%; (second compound 0.03 µM, first compound 1 µM) 66.1%. Further, the viability, T/C by setting is: (second compound 0.0949 µM, first compound 0.00316 µM) 53.9%; (second compound 0.0949 µM, first compound 0.01 µM) 45.3%; (second compound 0.0949 µM, first compound 0.0316 µM) 41.8%; (second compound 0.0949 µM, first compound 0.1 µM) 42.9%; (second compound 0.0949 µM, first compound 0.316 µM) 40.3%; (second compound 0.0949 µM, first compound 1 µM) 47.1%. Moreover, the viability, T/C (second compound 0.3 µM, first compound 0.00316 µM) is 31.8%; the viability, T/C (second compound 0.3 µM, first compound 0.01 µM) was 30.2%; the viability, T/C (second compound 0.3 µM, first compound 0.0316 µM) is 27.7%; the viability, T/C (second compound 0.3 µM, first compound 0.1 µM) is 30.9%; the viability, T/C (second compound 0.3 µM, first compound 0.316 µM) was 34.5%; the viability, T/C (second compound 0.3 µM, first compound 1 µM) is 40.2%. Moreover, the viability, T/C by setting is: (second compound 0.949 µM, first compound 0.00316 µM) 20.6%; (second compound 0.949 µM, first compound 0.01 µM) 17.6%; (second compound 0.949 µM, first compound 0.0316 µM) 20.5%; (second compound 0.949 µM, first compound 0.1 µM) 21.5%; (second compound 0.949 µM, first compound 0.316 µM) 24.9%; (second compound 0.949 µM, first compound 1 µM) 20%. Also, the viability, T/C by setting is: (second compound 3 µM, first compound 0.00316 µM) 13.1%; (second compound 3 µM, first compound 0.01 µM) 14%; (second compound 3 µM, first compound 0.0316 µM) 14.8%; (second compound 3 µM, first compound 0.1 µM) 14.6%; (second compound 3 µM, first compound 0.316 µM) 12.7%; (second compound 3 µM, first compound 1 µM) 13.4%.

On to `Cc1nc(N2CCC3(CC2)COC(C)C3N)c(CO)nc1Sc1ccnc(N)c1Cl` (stereo unspecified), for which the viability, T/C is 89.4% and 87.6% and 92.8% (compound 0.00949 µM); 89.1% and 113% and 107% (compound 0.03 µM); 86.5% and 90.9% and 95.4% (compound 0.0949 µM); 82.5% and 93.3% and 94.7% (compound 0.3 µM); 16.5% and 27% and 73% (compound 0.949 µM); 11.1% and 14.7% and 16.4% (compound 3 µM). For the setting “curve of compound”, the IC50 was 529 nM and 636 nM and 1520 nM.

For the molecule `O=C(c1ccc(F)c(F)c1Nc1ccc(I)cc1F)N1CC(O)([C@@H]2CCCCN2)C1`, the viability, T/C is, setting by setting: (compound 0.00316 µM) 104% and 101% and 102%; (compound 0.01 µM) 92.1% and 89.8% and 79.8%; (compound 0.0316 µM) 100% and 92.2% and 90.3%; (compound 0.1 µM) 99% and 111% and 102%; (compound 0.316 µM) 91.3% and 97.2% and 97.5%; (compound 1 µM) 86.5% and 89.6% and 87.4%. Moreover, the concentration for half-maximal inhibition (IC50) (curve of compound) was greater than 1000 nM.

For the origin of these results see PubChem BioAssay AID1963445 (Molecular Pharmacology Branch, DTP, NCI, 2024).
